Experimental data as given in publication PMC3898838, “Design, Synthesis, and Biological Evaluation of an Allosteric Inhibitor of HSET that Targets Cancer Cells with Supernumerary Centrosomes” (Chemistry & Biology, 2013).

Test system: HeLa cells
Assay: Time-lapse video microscopy, mitotic duration, arrest and exit
Type: cell-based, human
Conditions: 200 μM CW069, 100 μM monastrol
Description: HSET is known to antagonize the activity of the related kinesin, KSP, during spindle formation ([Mountain et al., 1999]). Therefore, we used time-lapse video microscopy to investigate whether CW069-treated cells transit mitosis with normal kinetics, and whether the characteristic mitotic arrest induced by inhibition of KSP ([Mayer et al., 1999]) could be suppressed by cotreatment with CW069. To this end, HeLa cells were treated with either DMSO control (0.2%), 200 μM CW069, 100 μM monastrol, or CW069+monastrol for 60 min before being imaged every 5 min for a further 360 min. Mitotic duration (MD) was defined as the period of time between when the cells began to round up and the onset of anaphase. No statistical difference was recorded between control cells and cells treated with 200 μM CW069 (MD 55 ± 7 and 53 ± 6 min, respectively, Figures 6A, 6B, and S7). […] This effect was reversed to a large extent by cotreatment of CW069 with monastrol. […] This is consistent with observations previously reported for KSP-depleted cells ([Mountain et al., 1999]). […] Cells were synchronized in G2-M by incubation at 37°C and 5% CO2 for 24 hr with 9 μM of the CDK1 inhibitor RO-3306 (Merck). Cells were released by removal of the RO-3306 and four washings of 10 min each, at 37°C, with prewarmed culture media + 10% FBS. N1E-115 cells were transfected with siRNA (Supplemental Experimental Procedures) and imaged from 6 hr after transfection. Some RO-3306-synchronized cells were released with 200 μM CW069, 100 μM monastrol, or 0.2% DMSO, and imaging started immediately or 1 hr after treatment. Imaging was carried out for 24 hr, or for 4 hr in the case of the CW069/monastrol cotreatment. Imaging was conducted every 5 min in a humidified chamber with 37°C and 5% CO2, using a Nikon Eclipse TE2000-E microscope, and analyzed with NIS-Elements software (Nikon, Tokyo, Japan). The morphology of cells in mitosis and the mitotic fate (bipolar division, multipolar division, or cell death) were analyzed.

[1] = >200 cells that entered mitosis >60 min after treatment

O=C(O)c1cc(I)ccc1NC(=O)[C@H](Cc1ccccc1)NCc1ccccc1 [CW069]
Mitotic Arrest (%) [1]: 4% | Mitotic Exit (%) [1]: 96% | Mitotic duration (MD) (rounding up to anaphase onset, cells transiting mitosis): 53 ± 6 min
